Reference: patent US12391679B2, “Benzamide-substituted bicyclic imidazo- and pyrazolo-fused -pyridine, -pyrimide, and -pyridazine compounds for treatment of inflammatory diseases” (ONCO3R Therapeutics BV, priority 2019, dated 2025)
Where two headings read alike, the source gives them in different places.

Experiments:
SIK1 = molecular target: T1, SIK1 (Homo sapiens, UniProt P57059); assay: ADP-Glo kinase assay, SIK1; assay type: biochemical
T1 construct: purchased Carna Biosciences 02-131
How it was run: (§1)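 ADP-Glo format, luminescent. Room-temperature kinase reaction lasting 120 min, followed by ATP removal (40 min) and ADP detection (30 min); 10 μM staurosporine serves as full-inhibition control, 1% DMSO as uninhibited control.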

SIK3 = molecular target: T2, SIK3 (Homo sapiens, UniProt Q9Y2K2); assay: ADP-Glo kinase assay, SIK3; assay type: biochemical
T2 construct: purchased SignalChem S12-11G-100
T2 sequence (Q9Y2K2 59-365 limits assumed): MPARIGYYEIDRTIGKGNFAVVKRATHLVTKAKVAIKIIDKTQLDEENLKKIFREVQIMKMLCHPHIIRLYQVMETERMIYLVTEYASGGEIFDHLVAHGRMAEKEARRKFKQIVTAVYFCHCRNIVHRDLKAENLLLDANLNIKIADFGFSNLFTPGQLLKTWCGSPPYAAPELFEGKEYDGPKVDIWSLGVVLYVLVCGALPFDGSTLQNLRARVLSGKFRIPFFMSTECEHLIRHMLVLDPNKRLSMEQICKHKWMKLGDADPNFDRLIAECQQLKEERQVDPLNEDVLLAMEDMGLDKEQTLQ
How it was run: as §1

[1] = tested on: LPS-induced TNFα in monocyte-derived macrophages; assay: MdM assay: LPS-triggered TNFα (ELISA); assay type: cell-based, human
How it was run: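 TNFα secretion quantified by streptavidin-HRP/luminol sandwich ELISA in supernatants collected 20 h after LPS (200 ng/mL). Macrophages derived from magnetically isolated human CD14+ monocytes were used at day 10, with compound added 1 h before LPS; final DMSO 0.2%.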

[2] = Macrophage, human MdM, LPS 200 ng/mL, supernatant after 20 h, inhibition of TNFα, read-out: TNFα EC50
[3] = ADP-Glo, AMARA 45 μM, 5 μM ATP, 120 min, average IC50
[4] = human MdM, LPS 200 ng/mL, supernatant after 20 h, inhibition of TNFα, read-out: TNFα EC50
[5] = Homo sapiens, Macrophage, 20 h, read-out: TNFα EC50 (nM)

T1 sequence (P57059 whole entry): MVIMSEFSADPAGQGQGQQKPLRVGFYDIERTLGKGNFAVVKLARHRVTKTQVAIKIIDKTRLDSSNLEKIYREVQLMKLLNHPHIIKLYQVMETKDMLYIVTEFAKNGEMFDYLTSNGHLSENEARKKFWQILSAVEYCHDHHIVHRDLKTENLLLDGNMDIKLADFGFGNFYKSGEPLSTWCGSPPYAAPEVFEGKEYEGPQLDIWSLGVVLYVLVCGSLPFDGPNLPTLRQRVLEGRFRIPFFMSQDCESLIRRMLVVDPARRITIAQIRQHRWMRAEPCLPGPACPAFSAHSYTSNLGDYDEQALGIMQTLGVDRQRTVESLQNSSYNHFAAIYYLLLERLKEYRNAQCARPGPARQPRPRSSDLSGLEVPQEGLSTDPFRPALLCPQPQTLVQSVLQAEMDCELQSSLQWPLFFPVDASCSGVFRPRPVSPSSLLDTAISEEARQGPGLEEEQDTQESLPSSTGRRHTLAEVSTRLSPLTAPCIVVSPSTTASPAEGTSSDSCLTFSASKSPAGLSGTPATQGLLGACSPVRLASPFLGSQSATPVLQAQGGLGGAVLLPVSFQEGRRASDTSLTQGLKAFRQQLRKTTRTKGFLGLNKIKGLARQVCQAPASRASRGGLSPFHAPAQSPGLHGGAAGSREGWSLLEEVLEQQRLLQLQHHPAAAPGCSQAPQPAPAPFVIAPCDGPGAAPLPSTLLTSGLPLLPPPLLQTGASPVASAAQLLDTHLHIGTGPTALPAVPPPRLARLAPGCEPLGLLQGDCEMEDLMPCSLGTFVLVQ

| Structure (SMILES) | IC50 (SIK1) [nM] | IC50 (SIK3) [nM] | EC50 [1, 2] [nM] | other results |
| --- | --- | --- | --- | --- |
| COc1cc(-c2cnn3cc(C4(C(N)=O)CCC4)ccc23)cc(OC(F)F)c1C(=O)N[C@@H]1C[C@@H]1F [Cpd 254, 4-[6-(1-carbamoylcyclobutyl)pyrazolo[1,5-a]pyridin-3-yl]-2-(difluoromethoxy)-N-[(1R,2S)-2-fluorocyclopropyl]-6-methoxy-benzamide] | > 500 | 0.01 to 10 | 1000 to 5000 | – |
| CCOC(C)(C)c1ccn2c(-c3cc(OC)c(C(=O)NC4CC4)c(OC(F)F)c3)cnc2c1 [Cpd 128, N-cyclopropyl-2-(difluoromethoxy)-4-[7-(1-ethoxy-1-methyl-ethyl)imidazo[1,2-a]pyridin-3-yl]-6-methoxy-benzamide] | > 500 | 10 to 100 | 100 to 1000 | – |
| COc1cc(-c2cnc3cc(C4COC4)ccn23)cc(OC(F)F)c1C(=O)N[C@@H]1C[C@@H]1F [Cpd 206, 2-(difluoromethoxy)-N-[(1R,2S)-2-fluorocyclopropyl]-6-methoxy-4-[7-(oxetan-3-yl)imidazo[1,2-a]pyridin-3-yl]benzamide] | 100 to 500 | 0.01 to 10 | 100 to 1000 | – |
| COc1cc(-c2cnc3cc(C4(O)CCOCC4)ccn23)cc(OC(F)F)c1C(=O)NC1CC1 [Cpd 170, N-cyclopropyl-2-(difluoromethoxy)-4-[7-(4-hydroxytetrahydropyran-4-yl)imidazo[1,2-a]pyridin-3-yl]-6-methoxy-benzamide] | > 500 | 10 to 100 | 1000 to 5000 | – |
| COc1cc(-c2cnc3cc(C(C)(C)C#N)ccn23)cc(OC(F)F)c1C(=O)N1CC(F)(F)C1 [Cpd 69, 2-[3-[4-(3,3-difluoroazetidine-1-carbonyl)-3-(difluoromethoxy)-5-methoxy-phenyl]imidazo[1,2-a]pyridin-7-yl]-2-methyl-propanenitrile] | > 500 | 0.01 to 10 | 100 to 1000 | – |
| COc1cc(-c2cnc3cc(C4(C#N)CCOCC4)ccn23)cc(OC(F)F)c1C(=O)NC1CC1 [Cpd 116, 4-[7-(4-cyanotetrahydropyran-4-yl)imidazo[1,2-a]pyridin-3-yl]-N-cyclopropyl-2-(difluoromethoxy)-6-methoxy-benzamide] | > 500 | 0.01 to 10 | 1000 to 5000 | – |
| COc1cc(-c2cnn3cc(C4COCCO4)ccc23)cc(OC(F)F)c1C(=O)NC1CC1 (stereo not shown) [Cpd 232, N-cyclopropyl-2-(difluoromethoxy)-4-[6-(1,4-dioxan-2-yl)pyrazolo[1,5-a]pyridin-3-yl]-6-methoxy-benzamide] | > 500 | 0.01 to 10 | 100 to 1000 | – |
| COc1cc(-c2cnc3cc([C@@](C)(C#N)CO)ccn23)cc(OC(F)F)c1C(=O)NC1CC1 (single isomer, unassigned) [Cpd 190, 4-[7-(1-cyano-2-hydroxy-1-methyl-ethyl)imidazo[1,2-a]pyridin-3-yl]-N-cyclopropyl-2-(difluoromethoxy)-6-methoxy-benzamide] | – | – | – | IC50 (SIK1; [3]): > 500 nM; IC50 (SIK3; [3]): 10 to 100 nM; EC50 [1, 4]: 1000 to 5000 nM |
| COc1cc(-c2cnc3cc(C(C)(C)O)ccn23)cc(OC(F)F)c1C(=O)N[C@@H]1C[C@@H]1F [Cpd 211, 2-(difluoromethoxy)-N-[(1R,2S)-2-fluorocyclopropyl]-4-[7-(1-hydroxy-1-methyl-ethyl)imidazo[1,2-a]pyridin-3-yl]-6-methoxy-benzamide] | > 500 | 0.01 to 10 | 100 to 1000 | – |
| COc1cc(-c2cnn3cc(C(C)(C)O)ccc23)cc(OC(F)F)c1C(=O)N[C@@H]1C[C@@H]1F [Cpd 227, 2-(difluoromethoxy)-N-[(1R,2S)-2-fluorocyclopropyl]-4-[6-(1-hydroxy-1-methyl-ethyl)pyrazolo[1,5-a]pyridin-3-yl]-6-methoxy-benzamide] | > 500 | 0.01 to 10 | 100 to 1000 | – |
| COc1cc(-c2cnn3cc(C4(N)CCC4)ccc23)cc(OC(F)F)c1C(=O)N[C@@H]1C[C@@H]1F [Cpd 261, 4-[6-(1-aminocyclobutyl)pyrazolo[1,5-a]pyridin-3-yl]-2-(difluoromethoxy)-N-[(1R,2S)-2-fluorocyclopropyl]-6-methoxy-benzamide] | > 500 | 0.01 to 10 | 1000 to 5000 | – |
| COc1cc(-c2cnc3cc(C(C)(C)C#N)ccn23)cc(OC(F)F)c1C(=O)N1CC(C#N)C1 [Cpd 77, 1-[4-[7-(1-cyano-1-methyl-ethyl)imidazo[1,2-a]pyridin-3-yl]-2-(difluoromethoxy)-6-methoxy-benzoyl]azetidine-3-carbonitrile] | > 500 | 0.01 to 10 | 100 to 1000 | – |
| COc1cc(-c2cnn3cc(C(C)(C)C#N)ccc23)cc(OC)c1C(=O)N[C@@H]1C[C@@H]1F [Cpd 245, 4-[6-(1-cyano-1-methyl-ethyl)pyrazolo[1,5-a]pyridin-3-yl]-N-[(1R,2S)-2-fluorocyclopropyl]-2,6-dimethoxy-benzamide] | > 500 | 10 to 100 | 100 to 1000 | – |
| [2H]C([2H])([2H])C(C#N)(c1ccc2c(-c3cc(OC)c(C(=O)N[C@@H]4C[C@@H]4F)c(OC(F)F)c3)cnn2c1)C([2H])([2H])[2H] [Cpd 275, 4-[6-[1-cyano-2,2,2-trideuterio-1-(trideuteriomethyl)ethyl]pyrazolo[1,5-a]pyridin-3-yl]-2-(difluoromethoxy)-N-[(1R,2S)-2-fluorocyclopropyl]-6-methoxy-benzamide] | – | – | – | EC50 [1, 5]: 100 to 1000 nM |
| CC[C@](C)(O)c1ccn2c(-c3cc(OC)c(C(=O)NC4CC4)c(OC(F)F)c3)cnc2c1 (single isomer, unassigned) [Cpd 165, N-cyclopropyl-2-(difluoromethoxy)-4-[7-(1-hydroxy-1-methyl-propyl)imidazo[1,2-a]pyridin-3-yl]-6-methoxy-benzamide] | – | – | – | IC50 (SIK1; [3]): > 500 nM; IC50 (SIK3; [3]): 10 to 100 nM; EC50 [1, 4]: 100 to 1000 nM |
| COc1cc(-c2cnc3cc(C4(C#N)CCOC4)ccn23)cc(OC(F)F)c1C(=O)NC1CC1 (stereo not shown) [Cpd 123, 4-[7-(3-cyanotetrahydrofuran-3-yl)imidazo[1,2-a]pyridin-3-yl]-N-cyclopropyl-2-(difluoromethoxy)-6-methoxy-benzamide] | > 500 | 10 to 100 | 1000 to 5000 | – |
| COc1cc(-c2cnn3cc(C(C)(C)COS(C)(=O)=O)ccc23)cc(OC(F)F)c1C(=O)N[C@@H]1C[C@@H]1F [Cpd 267, [2-[3-[3-(difluoromethoxy)-4-[[(1R,2S)-2-fluorocyclopropyl]carbamoyl]-5-methoxy-phenyl]pyrazolo[1,5-a]pyridin-6-yl]-2-methyl-propyl]methanesulfonate] | > 500 | 0.01 to 10 | 100 to 1000 | – |
| COc1cc(-c2cnc3cc(C4CCC4)c(F)cn23)cc(OC(F)F)c1C(=O)NC1CC1 [Cpd 168, 4-(7-cyclobutyl-6-fluoro-imidazo[1,2-a]pyridin-3-yl)-N-cyclopropyl-2-(difluoromethoxy)-6-methoxy-benzamide] | 100 to 500 | 0.01 to 10 | 100 to 1000 | – |
| COc1cc(-c2cnc3cc(C(C)(C)C#N)ccn23)cc(OC)c1C(=O)NC1CC1 [Cpd 28, 4-[7-(1-cyano-1-methyl-ethyl)imidazo[1,2-a]pyridin-3-yl]-N-cyclopropyl-2,6-dimethoxy-benzamide] | > 500 | 10 to 100 | 100 to 1000 | – |
| COc1cc(-c2cnn3cc(C(C)(C)C#N)ccc23)cc(OC(F)F)c1C(=O)N[C@@H]1C[C@H]1F (single isomer, unassigned) [Cpd 258, 4-[6-(1-cyano-1-methyl-ethyl)pyrazolo[1,5-a]pyridin-3-yl]-2-(difluoromethoxy)-N-(2-fluorocyclopropyl)-6-methoxy-benzamide] | – | – | – | EC50 ([1]; read-out: TNFα EC50, human MdM, LPS 200 ng/mL, supernatant after 20 h, inhibition of TNFα): 100 to 1000 nM |
| COc1cc(-c2cnc3cc(C(C)(C)C#N)ccn23)cc(OC(F)F)c1C(=O)NC1CC1 [Cpd 19, 4-[7-(1-cyano-1-methyl-ethyl)imidazo[1,2-a]pyridin-3-yl]-N-cyclopropyl-2-(difluoromethoxy)-6-methoxy-benzamide] | > 500 | 0.01 to 10 | 100 to 1000 | – |
| COCC(C)(C#N)c1ccn2c(-c3cc(OC)c(C(=O)NC4CC4)c(OC(F)F)c3)cnc2c1 (stereo not shown) [Cpd 195, 4-[7-(1-cyano-2-methoxy-1-methyl-ethyl)imidazo[1,2-a]pyridin-3-yl]-N-cyclopropyl-2-(difluoromethoxy)-6-methoxy-benzamide] | > 500 | 10 to 100 | 100 to 1000 | – |
| COc1cc(-c2cnc3cc([C@@](C)(O)C4CC4)ccn23)cc(OC(F)F)c1C(=O)NC1CC1 (single isomer, unassigned) [Cpd 163, N-cyclopropyl-4-[7-(1-cyclopropyl-1-hydroxy-ethyl)imidazo[1,2-a]pyridin-3-yl]-2-(difluoromethoxy)-6-methoxy-benzamide] | – | – | – | IC50 (SIK1; [3]): > 500 nM; IC50 (SIK3; [3]): 10 to 100 nM; EC50 [1, 4]: 100 to 1000 nM |
| COc1cc(-c2cnn3cc(C(C)(C)C#N)ccc23)cc(OC(F)F)c1C(=O)N[C@@H]1C[C@@H]1F [Cpd 219, 4-[6-(1-cyano-1-methyl-ethyl)pyrazolo[1,5-a]pyridin-3-yl]-2-(difluoromethoxy)-N-[(1R,2S)-2-fluorocyclopropyl]-6-methoxy-benzamide] | – | – | – | EC50 [1, 5]: 100 to 1000 nM |
| COc1cc(-c2cnn3cc(C(C)(C)C#N)ccc23)cc(OC(F)F)c1C(=O)N[C@@H]1C[C@H]1F (single isomer, unassigned) [Cpd 257, 4-[6-(1-cyano-1-methyl-ethyl)pyrazolo[1,5-a]pyridin-3-yl]-2-(difluoromethoxy)-N-(2-fluorocyclopropyl)-6-methoxy-benzamide] | – | – | – | EC50 [1, 5]: 100 to 1000 nM |
